The values below come from patent publication US20250382332A1, “NOVEL ALPHA-FACTOR BASED PEPTIDES WITH ANTIFUNGAL ACTIVITY” (INVAIO SCIENCES, INC., priority 2024, published 2025).

Peptide text beside a SMILES is read from it. Some results are limits rather than exact numbers.

This assay deals with Botrytis cinerea (B05.10). Kind of assay: Resazurin antifungal assay of 23 alpha-factor peptides (dimers, hybrids) towards Botrytis (Example 15, Table 6). Type of assay: cell-based. The note with it: resazurin assay, % inhibition of fungal growth, Botrytis cinerea B05.10; for Inhibition at 2.5 μM: peptide 2.5 μM; for Inhibition at 5 μM: peptide 5 μM; for Inhibition at 10 μM: peptide 10 μM; for Inhibition at 20 μM: peptide 20 μM; for Inhibition at 50 μM: peptide 50 μM. How it is done:
The antifungal activity of […] alpha-factor peptide variants towards Botrytis was tested. Experimental design:
Peptides corresponding to SEQ ID NO: 261-264 and 401-420 were chemically synthesized using the solid-phase synthesis method and resuspended in water to a stock solution of 1 mM. The stock solution was aliquoted in cryovials and stored at −80° C.
The Botrytis cinerea culture (B05.10) isolate was acquired from the Centraalbureau voor Schimmelcultures, the Netherlands. The Botrytis fungus was propagated on 0.5% V8 agar plates (200 ml V8 Juice, 3 g CaCO3, 15 g agar, 800-ml millipore water) at 20° C., in a 12 h photoperiod for 21 days.
Fungal conidia were harvested by scraping a Botrytis plate flooded with 1 ml water with 0.1% Tween 80 solution. Conidia were then collected in a 50 ml falcon tube by passing the solution through a 40 micron filter. The solution was then centrifuged at 6000 rpm and the pellet was resuspended in 1 ml of 20% glycerol. The conidia concentration of the resulting solution was counted using a hemocytometer. The stock was diluted to […] using 20% glycerol and frozen in 100 μl aliquots in −80° C. until further use.
Peptides were tested for activity against Botrytis, using the resazurin assay. For this, fungal stock conidia was first diluted to 5000 conidia/well. 50 μl of the spore suspension was added to each well of the sterile 96-well clear bottom testing plate and mixed with 50 μl of peptide solutions to a final concentration of 100, 50, 20, 10, 5 and 2.5 μM. The plate was incubated for 24 h at 20° C. After 24 h, 10 μl of resazurin dye was added to the microtiter plate and incubated again for […]. Fluorescence was measured at 570/620 nm after 4 h of incubation with resazurin.
Growth inhibition was calculated by subtracting the fluorescence values of conidia only wells from sample wells and depicted as % inhibition of fungal growth. Four technical replicates were used for all treatments.
A general note: The colour change of resazurin is a common sign of viable cells or microbes.

With `CSCC[C@H](NC(=O)[C@@H]1CCCN1C(=O)[C@H](CCC(N)=O)NC(=O)CNC(=O)[C@@H]1CCCN1C(=O)[C@H](CCCCN)NC(=O)[C@H](Cc1ccccc1)NC(=O)[C@H](CCCNC(=N)N)NC(=O)[C@H](CC(C)C)NC(=O)[C@H](Cc1ccc(O)cc1)NC(=O)[C@H](Cc1c[nH]cn1)NC(=O)[C@@H](N)CCCCN)C(=O)N[C@@H](Cc1ccc(O)cc1)C(=O)O` [compound 403] (H-KHYLRFKPGQPMY-OH; N-terminus and C-terminus assumed), the Inhibition (commonly the relative decrease from the control value, in per cent) at 2.5 μM is given as <90%; the “Inhibition at 5 μM” value is <90%; the “Inhibition at 10 μM” value is 96.0%; the “Inhibition at 20 μM” value amounted to 100%. In addition, the “Inhibition at 50 μM” value is given as 100%.

`CSCC[C@H](NC(=O)[C@@H]1CCCN1C(=O)[C@H](CCC(N)=O)NC(=O)CNC(=O)[C@@H]1CCCN1C(=O)[C@H](Cc1c[nH]c2ccccc12)NC(=O)[C@H](CC(C)C)NC(=O)[C@H](CCCNC(=N)N)NC(=O)[C@H](CC(C)C)NC(=O)[C@H](CO)NC(=O)[C@H](Cc1c[nH]cn1)NC(=O)[C@@H](N)CCCCN)C(=O)N[C@@H](Cc1ccc(O)cc1)C(=O)O` [compound 404] (H-KHSLRLWPGQPMY-OH; N-terminus and C-terminus assumed): the “Inhibition at 10 μM” value was <90%, the “Inhibition at 20 μM” value was <90% and the “Inhibition at 50 μM” value is listed as 100%.

On to `CSCC[C@H](NC(=O)[C@@H]1CCCN1C(=O)[C@H](CCC(N)=O)NC(=O)CNC(=O)[C@@H]1CCCN1C(=O)[C@H](Cc1ccccc1)NC(=O)[C@H](CC(C)C)NC(=O)[C@@H](NC(=O)[C@H](CC(C)C)NC(=O)[C@H](Cc1c[nH]c2ccccc12)NC(=O)[C@H](Cc1c[nH]cn1)NC(=O)[C@@H](N)CCCCN)[C@@H](C)O)C(=O)N[C@@H](Cc1ccc(O)cc1)C(=O)O` [compound 405] (H-KHWLTLFPGQPMY-OH; N-terminus and C-terminus assumed), for which the “Inhibition at 50 μM” value is <90%.

As for `CSCC[C@H](NC(=O)[C@@H]1CCCN1C(=O)[C@H](CCC(N)=O)NC(=O)CNC(=O)[C@H](CCCNC(=N)N)NC(=O)[C@H](CC(=O)O)NC(=O)[C@H](CC(C)C)NC(=O)[C@H](CCC(N)=O)NC(=O)[C@H](CC(C)C)NC(=O)[C@H](Cc1c[nH]c2ccccc12)NC(=O)[C@H](CCC(N)=O)NC(=O)[C@@H](N)Cc1c[nH]c2ccccc12)C(=O)N[C@@H](Cc1ccc(O)cc1)C(=O)O` [compound 406] (H-WQWLQLDRGQPMY-OH; N-terminus and C-terminus assumed), the “Inhibition at 50 μM” value is recorded as <90%.

Consider `CC[C@H](C)[C@H](NC(=O)[C@H](CCC(N)=O)NC(=O)[C@H](CC(C)C)NC(=O)[C@H](CO)NC(=O)[C@H](Cc1c[nH]cn1)NC(=O)[C@@H](N)Cc1c[nH]c2ccccc12)C(=O)N[C@@H](CCCCN)C(=O)N[C@@H](CCCCN)C(=O)NCC(=O)N[C@@H](CCC(N)=O)C(=O)N1CCC[C@H]1C(=O)N[C@@H](CCSC)C(=O)N[C@@H](Cc1ccc(O)cc1)C(=O)O` [compound 407] (H-WHSLQIKKGQPMY-OH; N-terminus and C-terminus assumed), for which the “Inhibition at 10 μM” value is on record as <90%, the “Inhibition at 20 μM” value was <90% and the “Inhibition at 50 μM” value was 100%.

On to `CSCC[C@H](NC(=O)[C@@H]1CCCN1C(=O)[C@H](CCC(N)=O)NC(=O)CNC(=O)[C@H](Cc1c[nH]c2ccccc12)NC(=O)[C@H](CC(N)=O)NC(=O)[C@H](Cc1ccccc1)NC(=O)[C@H](CCC(N)=O)NC(=O)[C@H](CC(C)C)NC(=O)[C@H](CC(C)C)NC(=O)[C@H](Cc1c[nH]cn1)NC(=O)[C@@H](N)Cc1c[nH]c2ccccc12)C(=O)N[C@@H](Cc1ccc(O)cc1)C(=O)O` [compound 408] (H-WHLLQFNWGQPMY-OH; N-terminus and C-terminus assumed), for which the “Inhibition at 10 μM” value is reported as <90%, the “Inhibition at 20 μM” value is <90% and the “Inhibition at 50 μM” value is 100%.

As for `CSCC[C@H](NC(=O)[C@H](CO)NC(=O)[C@H](CCC(N)=O)NC(=O)CNC(=O)[C@H](CCCNC(=N)N)NC(=O)[C@H](CCCCN)NC(=O)[C@H](CC(C)C)NC(=O)[C@@H](NC(=O)[C@H](CC(C)C)NC(=O)[C@@H](NC(=O)[C@@H](NC(=O)[C@@H](N)Cc1c[nH]c2ccccc12)[C@@H](C)O)C(C)C)[C@@H](C)O)C(=O)N[C@@H](Cc1ccc(O)cc1)C(=O)O` [compound 409] (H-WTVLTLKRGQSMY-OH; N-terminus and C-terminus assumed), the “Inhibition at 2.5 μM” value was <90%, the “Inhibition at 5 μM” value is on record as <90%, the “Inhibition at 10 μM” value was 97.7% and the “Inhibition at 20 μM” value was 100%. Also, the “Inhibition at 50 μM” value came out at 100%.

Regarding `CSCC[C@H](NC(=O)[C@@H]1CCCN1C(=O)[C@H](CCC(N)=O)NC(=O)CNC(=O)[C@@H]1CCCN1C(=O)[C@H](CCCNC(=N)N)NC(=O)[C@H](Cc1ccccc1)NC(=O)[C@H](CCCNC(=N)N)NC(=O)[C@H](CC(C)C)NC(=O)[C@H](Cc1c[nH]c2ccccc12)NC(=O)[C@H](Cc1c[nH]cn1)NC(=O)[C@@H](N)CCCCN)C(=O)N[C@@H](Cc1ccc(O)cc1)C(=O)O` [compound 410] (H-KHWLRFRPGQPMY-OH; N-terminus and C-terminus assumed), the “Inhibition at 10 μM” value was <90%, the “Inhibition at 20 μM” value came out at 100% and the “Inhibition at 50 μM” value was found to be 100%.

Take `CSCC[C@H](NC(=O)[C@@H]1CCCN1C(=O)[C@H](CCC(N)=O)NC(=O)CNC(=O)[C@@H]1CCCN1C(=O)[C@H](Cc1c[nH]c2ccccc12)NC(=O)[C@H](Cc1ccccc1)NC(=O)[C@H](CCCNC(=N)N)NC(=O)[C@H](CC(C)C)NC(=O)[C@H](Cc1c[nH]c2ccccc12)NC(=O)[C@H](Cc1c[nH]cn1)NC(=O)[C@@H](N)CCCCN)C(=O)N[C@@H](Cc1ccc(O)cc1)C(=O)O` [compound 411] (H-KHWLRFWPGQPMY-OH; N-terminus and C-terminus assumed): the “Inhibition at 10 μM” value is listed as <90%, the “Inhibition at 20 μM” value is given as <90% and the “Inhibition at 50 μM” value came to 100%.

On to `CC[C@H](C)[C@H](NC(=O)[C@H](CCCNC(=N)N)NC(=O)[C@H](CC(C)C)NC(=O)[C@H](Cc1c[nH]c2ccccc12)NC(=O)[C@H](Cc1c[nH]cn1)NC(=O)[C@@H](N)CCCCN)C(=O)N[C@@H](Cc1c[nH]c2ccccc12)C(=O)N1CCC[C@H]1C(=O)NCC(=O)N[C@@H](CCC(N)=O)C(=O)N1CCC[C@H]1C(=O)N[C@@H](CCSC)C(=O)N[C@@H](Cc1ccc(O)cc1)C(=O)O` [compound 412] (H-KHWLRIWPGQPMY-OH; N-terminus and C-terminus assumed), for which the “Inhibition at 10 μM” value was <90%, the “Inhibition at 20 μM” value is on record as <90% and the “Inhibition at 50 μM” value was 100%.

With `CSCC[C@H](NC(=O)[C@H](Cc1ccc(O)cc1)NC(=O)[C@H](CCCNC(=N)N)NC(=O)[C@H](CCCNC(=N)N)NC(=O)[C@H](CCCNC(=N)N)NC(=O)[C@H](CCCNC(=N)N)NC(=O)[C@H](CCCNC(=N)N)NC(=O)[C@H](CCCNC(=N)N)NC(=O)[C@H](CCCNC(=N)N)NC(=O)[C@@H](N)CCCNC(=N)N)C(=O)N1CCC[C@H]1C(=O)N[C@@H](CCC(N)=O)C(=O)NCC(=O)N1CCC[C@H]1C(=O)N[C@@H](CCCCN)C(=O)N[C@@H](CC(C)C)C(=O)N[C@@H](CCC(N)=O)C(=O)N[C@@H](CC(C)C)C(=O)N[C@@H](Cc1c[nH]c2ccccc12)C(=O)N[C@@H](Cc1c[nH]cn1)C(=O)N[C@@H](Cc1c[nH]c2ccccc12)C(=O)O` [compound 420] (H-RRRRRRRRYMPQGPKLQLWHW-OH; N-terminus and C-terminus assumed), the “Inhibition at 50 μM” value is 100%. The “Inhibition at 100 μM” value (peptide 100 μM) is given as 100%.
